Laboratory results taken from US20130274237A1, “COMPOSITION INCLUDING CHLOROPHYLL A AS AN ACTIVE INGREDIENT FOR PREVENTING AND TREATING TH2-MEDIATED IMMUNOLOGICAL DISEASES” (GWANGJU INSTITUTE OF SCIENCE AND TECHNOLOGY, priority 2009, published 2013).
Values joined by “and” are separate entries in the source; they are usually repeats but may differ in a detail not shown here. Identical values can stand only once.

Experiments:
[1] = tested on: atopic dermatitis induced with DNCB in NC/Nga mice; assay: Sensory evaluation (clinical visual skin score) in DNCB-induced atopic dermatitis; type: in vivo; set-up: key: total of five item scores, 0 = lowest, 15 = highest; details: scale 0-15; for Sensory Evaluation Score, group mean: mean of 5 mice; for Sensory Evaluation Score mean: mean of A and B; for Sensory Evaluation Score mean / Sensory Evaluation Score A / Sensory Evaluation Score B: individual mouse; for Sensory Evaluation Score A: scorer A; for Sensory Evaluation Score B: scorer B
Description: Sensory evaluation was performed using the general clinical visual method. The result of visual evaluation was indicated in terms of the total score obtained by adding each of the evaluation scores for the five items shown in the below table. The scoring for the level of dermatitis was performed by two or more persons experienced in this experiment under mutual agreement. The score was set from “0” point, the lowest, to “15” point, the highest (Table 2).

spleen = assay: Measurement of spleen weight; type: in vivo, NC/Nga mice; details: for relative organ weight of spleen: group mean; for Absolute Comparison of Organs spleen wt. / Relative Comparison of Organs spleen: individual mouse; for Absolute Comparison of Organs spleen wt. mean S.D. / Relative Comparison of Organs spleen mean S.D.: mean of 5 mice
Description: The spleen of a sacrificed animal was ablated, removed of fat, and then measured of its weight. When the absolute organ weight of the spleen was compared with that of the positive control group (0.2576±0.043 g), the weight was lower in the order of test drug chlorophyll a 1 mg/kg group (0.1188±0.023 g), chlorophyll a 5 mg/kg group (0.1276±0.011 g), and 5 mg/kg drug control group (0.1376±0.025 g), and all of them were of significance at p<0.05, but were lower than that of the negative control group (0.1734±0.021 g) (FIG. 6).

IgE (Immunoglobulin E) = assay: IgE concentration in blood serum (ELISA); type: in vivo, NC/Nga mice; details: for IgE Average Concentration / IgE Group Average: blood serum; for IgE Average Concentration: individual specimen; for IgE Group Average: mean of 5 mice
Description: The blood collected in a mouse was left at room temperature for 30 minutes and then centrifuged at 3000 rpm for 20 minutes. The blood serum obtained therefrom was analyzed via ELISA kit (Shibayagi, Japan).

[2] = tested on: dorsal skin of NC/Nga mice induced with atopic dermatitis using DNCB; assay: Dorsal skin inflammation of mice induced with atopic dermatitis (clinical images); type: in vivo; details: 15th week, versus positive control, in words
From the text: 4-6) Dorsal Skin Inflammation of a Mouse Induced with Atopic Dermatitis • c. The body weight of a mouse was not increased due to DNCB solution used for inducing atopy, however, there was no decrease in body weight by the administration of chlorophyll a. In the positive control group coated with only distilled water after atopy induction using DNCB, there were observed a thick cornified layer and inflammation and damage on skin.

mast cells = assay: Histology: number of mast cells in skin (toluidine blue, x200); type: in vivo, NC/Nga mice; details: for Average No. of Mast Cells × 200: individual mouse; for Average No. of Mast Cells × 200, Group Mean: mean of 5 mice
Description: (§1) 4-7) Histology (H & E, Toluidine Blue Stain) • d. Skin tissues were fixed in 10% formalin for at least 24 hours, prepared into paraffin blocks, cut into pieces in the size of 4 μm, dyed with hematoxylin & eosin (Sigma, USA), and then dyed again with toluidine blue (Sigma, USA) for more accurate identification of inflammatory cells.

[3] = tested on: degranulation of mast cells; assay: Histology: mast cells per degranulation level; type: in vivo, NC/Nga mice; details: for No. of Mast Cells per value of degranulation level 1 / No. of Mast Cells per value of degranulation level 1, mean: intermediate level of degranulation; for No. of Mast Cells per value of degranulation level 1, mean: mean of 5 mice
Description: as §1

## C=Cc1c(C)c2cc3nc(c4c5[n-]c(cc6nc(cc1[n-]2)C(C)=C6CC)c(C)c5C(=O)[C@@H]4C(=O)OC)[C@@H](CCC(=O)OC/C=C(\C)CCC[C@H](C)CCC[C@H](C)CCCC(C)C)[C@@H]3C.[Mg+2] [chlorophyll a]
[1]; 1 mg/kg oral daily
  Sensory Evaluation Score, group mean: 2.7±0.758 and 2.7
  Sensory Evaluation Score mean: 1.5 and 3 (2×) and 3.5 and 2.5
  Sensory Evaluation Score A: 2 (2×) and 3 (3×)
  Sensory Evaluation Score B: 1 and 4 (2×) and 2 and 3
[1]; 5 mg/kg oral daily
  Sensory Evaluation Score, group mean: 2.7±1.789 and 2.7
  Sensory Evaluation Score mean: 5.5 and 1.5 (3×) and 3.5
  Sensory Evaluation Score A: 5 and 2 (3×) and 3
  Sensory Evaluation Score B: 6 and 1 (3×) and 4
spleen; 1 mg/kg oral daily
  relative organ weight of spleen: 0.418 ± 0.211 g
  Absolute Comparison of Organs spleen wt.: 0.103 g and 0.114 g and 0.119 g and 0.1 g and 0.158 g
  Relative Comparison of Organs spleen: 0.355 g/body wt. (100 g) and 0.394 g/body wt. (100 g) and 0.433 g/body wt. (100 g) and 0.370 g/body wt. (100 g) and 0.537 g/body wt. (100 g)
  Absolute Comparison of Organs spleen wt. mean S.D.: 0.1188 ± 0.023 g
  Relative Comparison of Organs spleen mean S.D.: 0.418 ± 0.073 g/body wt. (100 g)
spleen; 5 mg/kg oral daily
  relative organ weight of spleen: 0.446 ± 0.069 g
  Absolute Comparison of Organs spleen wt.: 0.144 g and 0.12 g and 0.133 g and 0.122 g and 0.119 g
  Relative Comparison of Organs spleen: 0.560 g/body wt. (100 g) and 0.383 g/body wt. (100 g) and 0.455 g/body wt. (100 g) and 0.414 g/body wt. (100 g) and 0.416 g/body wt. (100 g)
  Absolute Comparison of Organs spleen wt. mean S.D.: 0.1276 ± 0.011 g
  Relative Comparison of Organs spleen mean S.D.: 0.446 ± 0.069 g/body wt. (100 g)
spleen; in words, dose not split
  absolute organ weight and relative organ weight of spleen compared with the negative control group: only a little difference
IgE (Immunoglobulin E); 1 mg/kg oral daily, 1 mg/kg
  IgE Average Concentration: 104.198 ng/mL and 106.557 ng/mL and 166.675 ng/mL and 119.515 ng/mL and 149.499 ng/mL
  IgE Group Average: 121.76 ± 15.58 ng/mL and 129.29 ± 27.60 ng/mL
IgE (Immunoglobulin E); 5 mg/kg oral daily, 5 mg/kg
  IgE Average Concentration: 108.757 ng/mL and 115.652 ng/mL and 129.408 ng/mL and 88.578 ng/mL and 104.912 ng/mL
  IgE Group Average: 109.46 ± 14.95 ng/mL
IgE (Immunoglobulin E); in words, dose not split
  value of IgE: decreased
[2]; 1 mg/kg oral daily
  tissue damage of dorsal skin: significant decreases
[2]; 5 mg/kg oral daily
  tissue damage of dorsal skin: significant decreases
Mast cells; 1 mg/kg oral daily
  Average No. of Mast Cells × 200: 9.3 and 7.6 and 5.4 and 8.9 and 10.4
  Average No. of Mast Cells × 200, Group Mean: 8.32±1.195 and 8.32 ± 1.915 and 8.32
Mast cells; 5 mg/kg oral daily
  Average No. of Mast Cells × 200: 7.3 and 10 and 12.7 and 11.8 and 11.1
  Average No. of Mast Cells × 200, Group Mean: 10.8±2.083 and 10.58 ± 2.083 and 10.58
[3]; 1 mg/kg oral daily, in words
  degranulation count of the mast cells: not significantly improved
[3]; 1 mg/kg oral daily, individual mouse, 1 mg/kg
  No. of Mast Cells per value of degranulation level 1: 2.87 and 1.44 and 1.91 and 1.75 and 2.57
[3]; 1 mg/kg oral daily, 1 mg/kg
  No. of Mast Cells per value of degranulation level 1, mean: 2.11±0.59 and 2.11
[3]; 5 mg/kg oral daily, individual mouse, 5 mg/kg
  No. of Mast Cells per value of degranulation level 1: 0.75 and 2.31 and 2.76 and 2.57 and 4.31
[3]; 5 mg/kg oral daily, 5 mg/kg
  No. of Mast Cells per value of degranulation level 1, mean: 2.54±1.27 and 2.54
[3]; normal degranulation, 1 mg/kg oral daily, individual mouse, 1 mg/kg
  No. of Mast Cells per value of degranulation level 0: 4.12 and 5.55 and 2.82 and 5.89 and 4.83
